According to patent US20230348369A1 (Cytokinetics, Inc., priority 2020, published 2023):
Like-named read-outs stand apart in the source and are kept apart here.

Biological target: human NAMPT (Homo sapiens, UniProt P43490)
Experiment: Human recombinant enzyme assay (NMN fluorescence biochemical assay, activation of NAMPT)
Outline: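 NMN production is detected fluorometrically (Ex 355/Em 460 nm) 40 min after acetophenone, KOH and formic acid derivatization. Reactions ran 60 min at ambient temperature: 6 nM human NAMPT, nicotinamide 150 μM, PRPP 20 μM, ATP 2.5 mM, buffered at pH 7.2 with 50 mM HEPES plus DTT, CHAPS, NaCl and 100 mM MgCl2.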

[1] = Table A, human recombinant NAMPT, NMN formation, 60 min
[2] = Table A, human recombinant NAMPT, NMN formation, 60 min, read-out: EC50 Human

human NAMPT, sequence (P43490 whole entry): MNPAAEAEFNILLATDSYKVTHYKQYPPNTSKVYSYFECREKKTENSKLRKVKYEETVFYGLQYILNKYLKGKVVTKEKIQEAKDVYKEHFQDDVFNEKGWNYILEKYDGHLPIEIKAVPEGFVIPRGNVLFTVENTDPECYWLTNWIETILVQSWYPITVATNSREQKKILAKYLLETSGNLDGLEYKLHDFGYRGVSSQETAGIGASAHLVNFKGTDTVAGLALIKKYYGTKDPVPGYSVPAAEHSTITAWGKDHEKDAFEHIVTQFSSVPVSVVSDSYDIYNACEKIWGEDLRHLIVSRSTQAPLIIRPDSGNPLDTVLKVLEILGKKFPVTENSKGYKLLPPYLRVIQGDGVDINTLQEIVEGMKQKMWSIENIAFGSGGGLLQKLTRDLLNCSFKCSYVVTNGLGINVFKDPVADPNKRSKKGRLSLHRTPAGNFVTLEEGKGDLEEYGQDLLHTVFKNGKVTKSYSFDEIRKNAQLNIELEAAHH

SMILES	AC1.4 Human [1]	EC50 [2]	EC50
COc1ccc(CNC(=O)NC2CC3(C2)CN(C(=O)c2cccc(C(C)C)c2)C3)cc1 [Compound 173, 1-(2-(3-isopropylbenzoyl)-2-azaspiro[3.3]heptan-6-yl)-3-(4-methoxybenzyl)urea]	1.7 µM	20.2 µM	
COc1ccc(CNC(=O)NC2CC3(C2)CN(C(=O)c2cccc(C(C)(C)C)c2)C3)cc1 [Compound 174, 1-(2-(3-(tert-butyl)benzoyl)-2-azaspiro[3.3]heptan-6-yl)-3-(4-methoxybenzyl)urea]	2.0 µM	29.5 µM	
COc1ccc(CNC(=O)NC2CC3(C2)CN(C(=O)c2cccc(C(C)(C)O)c2)C3)cc1 [Compound 175, 1-(2-(3-(2-hydroxypropan-2-yl)benzoyl)-2-azaspiro[3.3]heptan-6-yl)-3-(4-methoxybenzyl)urea]	5.5 µM	55.1 µM	
COc1ccc(CNC(=O)NC2CC3(C2)CN(C(=O)c2cccc(OC)c2)C3)cc1 [Compound 176]	2.0 µM	21.9 µM	
COc1ccc(CNC(=O)NC2CC3(C2)CN(C(=O)c2cccc(O)c2)C3)cc1 [Compound 177, 1-(2-(3-hydroxybenzoyl)-2-azaspiro[3.3]heptan-6-yl)-3-(4-methoxybenzyl)urea]	2.8 µM		11.2 µM
COc1ccc(CNC(=O)NC2CC3(C2)CN(C(=O)c2cccc(N(C)C)c2)C3)cc1 [Compound 178, 1-(2-(3-(dimethylamino)benzoyl)-2-azaspiro[3.3]heptan-6-yl)-3-(4-methoxybenzyl)urea]	3.1 µM	21.4 µM	
COc1ccc(CNC(=O)NC2CC3(C2)CN(C(=O)c2cccc(N4CCCC4)c2)C3)cc1 [Compound 179, 1-(4-methoxybenzyl)-3-(2-(3-(pyrrolidin-1-yl)benzoyl)-2-azaspiro[3.3]heptan-6-yl)urea]	0.8 µM		12.4 µM
COc1ccc(CNC(=O)NC2CC3(C2)CN(C(=O)c2cccc(S(C)(=O)=O)c2)C3)cc1 [Compound 180, 1-(4-methoxybenzyl)-3-(2-(3-(methylsulfonyl)benzoyl)-2-azaspiro[3.3]heptan-6-yl)urea]	7.8 µM	37.6 µM	
COC(=O)c1cccc(C(=O)N2CC3(CC(NC(=O)NCc4ccc(OC)cc4)C3)C2)c1 [Compound 181, methyl 3-(6-(3-(4-methoxybenzyl)ureido)-2-azaspiro[3.3]heptane-2-carbonyl)benzoate]	3.0 µM	29.7 µM	
Cc1cccc(N2CC[C@]3(C2)C[C@@H](NC(=O)NCc2ccc(Cl)cc2)C3)n1 [Compound 183, 1-(4-chlorobenzyl)-3-((2r,4s)-6-(6-methylpyridin-2-yl)-6-azaspiro[3.4]octan-2-yl)urea]	11.2 µM	56 µM	
O=C(NCc1ccc(Cl)cc1)NC1CC2(C1)CC(NC(=O)c1cccnc1)C2 (stereo not shown) [Compound 184, N-(6-(3-(4-chlorobenzyl)ureido)spiro[3.3]heptan-2-yl)nicotinamide]	10.0 µM	37.9 µM	
O=C(NCc1ccc(Cl)cc1)NC1CC2(C1)CC(NC(=O)c1ccncc1)C2 (stereo not shown) [Compound 185, N-(6-(3-(4-chlorobenzyl)ureido)spiro[3.3]heptan-2-yl)isonicotinamide]	11.6 µM	22 µM	
Cc1cc(C(=O)NC2CC3(CC(NC(=O)NCc4ccc(Cl)cc4)C3)C2)ccn1 (stereo not shown) [Compound 186, N-(6-(3-(4-chlorobenzyl)ureido)spiro[3.3]heptan-2-yl)-2-methylisonicotinamide]	16.0 µM	53.4 µM	
COc1ccc(CNC(=O)NC2CC3(C2)CN(C(=O)c2cccc(N4CCCC4=O)c2)C3)cc1 [Compound 188, 1-(4-methoxybenzyl)-3-(2-(3-(2-oxopyrrolidin-1-yl)benzoyl)-2-azaspiro[3.3]heptan-6-yl)urea]	0.9 µM	13.4 µM	
COc1ccc(CNC(=O)NC2CC3(C2)CN(C(=O)c2cccc(-n4cccc4)c2)C3)cc1 [Compound 189, 1-(2-(3-(1H-pyrrol-1-yl)benzoyl)-2-azaspiro[3.3]heptan-6-yl)-3-(4-methoxybenzyl)urea]	1.4 µM	21.3 µM	
COc1ccc(CNC(=O)NC2CC3(C2)CN(C(=O)c2cccc(N4CCCCC4)c2)C3)cc1 [Compound 190, 1-(4-methoxybenzyl)-3-(2-(3-(piperidin-1-yl)benzoyl)-2-azaspiro[3.3]heptan-6-yl)urea]	1.8 µM	34 µM	
COc1ccc(CNC(=O)NC2CC3(C2)CN(C(=O)c2cccc(N4CCOCC4)c2)C3)cc1 [Compound 191, 1-(4-methoxybenzyl)-3-(2-(3-morpholinobenzoyl)-2-azaspiro[3.3]heptan-6-yl)urea]	1.3 µM	23.8 µM	
Cc1ccc(C(=O)NC2CC3(CC(NC(=O)NCc4ccc(Cl)cc4)C3)C2)cn1 (stereo not shown) [Compound 192, N-(6-(3-(4-chlorobenzyl)ureido)spiro[3.3]heptan-2-yl)-6-methylnicotinamide]	12.1 µM	52.8 µM	

SMILES	AC1.4 Human [1]	EC50 [2]	EC50
Cc1ccccc1C(=O)NC1CC2(CC(NC(=O)NCc3ccc(Cl)cc3)C2)C1 (stereo not shown) [Compound 193, N-(6-(3-(4-chlorobenzyl)ureido)spiro[3.3]heptan-2-yl)-2-methylbenzamide]	3.6 µM	14.6 µM	
COc1cccc(C(=O)NC2CC3(CC(NC(=O)NCc4ccc(Cl)cc4)C3)C2)c1 (stereo not shown) [Compound 194, N-(6-(3-(4-chlorobenzyl)ureido)spiro[3.3]heptan-2-yl)-3-methoxybenzamide]	8.8 µM	5.9 µM	
CS(=O)(=O)c1cccc(C(=O)NC2CC3(CC(NC(=O)NCc4ccc(Cl)cc4)C3)C2)c1 (stereo not shown) [Compound 195, N-(6-(3-(4-chlorobenzyl)ureido)spiro[3.3]heptan-2-yl)-3-(methylsulfonyl)benzamide]	17.1 µM	23.5 µM	
CC(C)(C)OC(=O)N1CC2(CC(NC(=O)NCc3ccc(Cl)cc3)C2)C1 [Compound 197, tert-butyl 6-(3-(4-chlorobenzyl)ureido)-2-azaspiro[3.3]heptane-2-carboxylate]	3.7 µM	13.5 µM	
O=C(NCc1ccc(Cl)cc1)NC1CC2(C1)CC(NC(=O)c1cccc(O)c1)C2 (stereo not shown) [Compound 200, N-(6-(3-(4-chlorobenzyl)ureido)spiro[3.3]heptan-2-yl)-3-hydroxybenzamide]	17.1 µM	18.2 µM	
Cc1cnccc1C(=O)NC1CC2(CC(NC(=O)NCc3ccc(Cl)cc3)C2)C1 (stereo not shown) [Compound 204, N-(6-(3-(4-chlorobenzyl)ureido)spiro[3.3]heptan-2-yl)-3-methylisonicotinamide]	13.6 µM	26.8 µM	
Cc1ccncc1C(=O)NC1CC2(CC(NC(=O)NCc3ccc(Cl)cc3)C2)C1 (stereo not shown) [Compound 205, N-(6-(3-(4-chlorobenzyl)ureido)spiro[3.3]heptan-2-yl)-4-methylnicotinamide]	10.0 µM	23.6 µM	
Cc1ccc(C(=O)N2CC3(CC(NC(=O)NCc4ccc(F)cc4)C3)C2)cc1 [Compound 207, 1-(4-fluorobenzyl)-3-(2-(4-methylbenzoyl)-2-azaspiro[3.3]heptan-6-yl)urea]	13.7 µM	6.6 µM	
O=C(NCc1ccc(Cl)cc1)NC1CC2(C1)CC(NC(=O)c1ccccc1O)C2 (stereo not shown) [Compound 208, N-(6-(3-(4-chlorobenzyl)ureido)spiro[3.3]heptan-2-yl)-2-hydroxybenzamide]	9.6 µM	11.8 µM	
CN(C)c1ccccc1C(=O)NC1CC2(CC(NC(=O)NCc3ccc(Cl)cc3)C2)C1 (stereo not shown) [Compound 209, N-(6-(3-(4-chlorobenzyl)ureido)spiro[3.3]heptan-2-yl)-2-(dimethylamino)benzamide]	10.6 µM	38.5 µM	
O=C(NCc1ccc(Cl)cc1)NC1CC2(C1)CC(NS(=O)(=O)c1cccnc1)C2 (stereo not shown) [Compound 213, N-(6-(3-(4-chlorobenzyl)ureido)spiro[3.3]heptan-2-yl)pyridine-3-sulfonamide]	6.8 µM	6.8 µM	
Cc1ccc(C(=O)N2CC3(CC(NC(=O)NCc4ccc(C(N)=O)nc4)C3)C2)cc1 [Compound 215, 5-((3-(2-(4-methylbenzoyl)-2-azaspiro[3.3]heptan-6-yl)ureido)methyl)picolinamide]	3.6 µM	30.8 µM	
O=C(NCc1ccc(Cl)cc1)NC1CC2(C1)CN(S(=O)(=O)c1ccccc1Cl)C2 [Compound 216, 1-(4-chlorobenzyl)-3-(2-((2-chlorophenyl)sulfonyl)-2-azaspiro[3.3]heptan-6-yl)urea]	4.9 µM	20.9 µM	
O=C(NCc1ccc(Cl)cc1)NC1CC2(C1)CN(S(=O)(=O)c1cccc(Cl)c1)C2 [Compound 217, 1-(4-chlorobenzyl)-3-(2-((3-chlorophenyl)sulfonyl)-2-azaspiro[3.3]heptan-6-yl)urea]	19.2 µM	20.1 µM	
COc1ccccc1S(=O)(=O)N1CC2(CC(NC(=O)NCc3ccc(Cl)cc3)C2)C1 [Compound 218, 1-(4-chlorobenzyl)-3-(2-((2-methoxyphenyl)sulfonyl)-2-azaspiro[3.3]heptan-6-yl)urea]	13.2 µM	22.5 µM	
O=C(NCc1ccc(Cl)cc1)NC1CC2(C1)CN(C(=O)c1cccc(-n3cccc3)c1)C2 [Compound 219, 1-(2-(3-(1H-pyrrol-1-yl)benzoyl)-2-azaspiro[3.3]heptan-6-yl)-3-(4-chlorobenzyl)urea]	2.9 µM	5.2 µM	
CC(C)c1cccc(C(=O)N2CC3(CC(NC(=O)NCc4ccc(Cl)cc4)C3)C2)c1 [Compound 220, 1-(4-chlorobenzyl)-3-(2-(3-isopropylbenzoyl)-2-azaspiro[3.3]heptan-6-yl)urea]	3.6 µM	4.7 µM	
